Experimental data: ChEMBL document CHEMBL3885861, “Open TG-GATES”

Species on record: Rattus norvegicus
Experiment: Open TG-GATES - Regimen: Single
Assay type: toxicity, organism-based, Sprague-Dawley
Design: regimen Single, gender Male, age 6 weeks
Details: in vivo, iv, route intravenous injection; for LIVER: tissue Liver; for A/G / ALP / ALT / AST / BUN / CRE / Ca / Cl / DBIL / GLC / IP / K / LDH / Na / PL / RALB / TBIL / TC / TG / TP / gamma-GTP: tissue Plasma; for APTT / Bas / Eos / Fbg / Hb / Ht / Lym / MCH / MCHC / MCV / Mono / Neu / PT / Plat / RBC / Ret / WBC: tissue Blood; for KIDNEY_L / KIDNEY_R / KIDNEY_TOTAL: tissue Kidney
[1] = 2 mg/kg, 3 h, dose level Middle
[2] = 2 mg/kg, 6 h, dose level Middle

For `C[C@@H]1[C@H](O)[C@@H](C)/C=C/C=C/C=C/C=C/C=C/C=C/C=C/[C@H](O[C@@H]2O[C@H](C)[C@@H](O)[C@H](N)[C@@H]2O)C[C@@H]2O[C@](O)(C[C@@H](O)C[C@@H](O)[C@H](O)CC[C@@H](O)C[C@@H](O)CC(=O)O[C@H]1C)C[C@H](O)[C@H]2C(=O)O` [AMPHOTERICIN B], the LIVER (1 mg/kg, 9 h, dose level Low) was 8.4 g, the A/G (1 mg/kg, 9 h, dose level Low) was 0.8 and the ALP (1 mg/kg, 9 h, dose level Low) was 1344.2 IU/L. For the same compound, the ALT (1 mg/kg, 9 h, dose level Low) was 33 IU/L, the AST (1 mg/kg, 9 h, dose level Low) was 85 IU/L and the BUN (1 mg/kg, 9 h, dose level Low) was 16.6 mg/dL. It also gave a CRE (1 mg/kg, 9 h, dose level Low) of 0.1 mg/dL, a Ca (1 mg/kg, 9 h, dose level Low) of 10.6 mg/dL and a Cl (1 mg/kg, 9 h, dose level Low) of 106.6 meq/L. For the same compound, the DBIL (1 mg/kg, 9 h, dose level Low) was 0.012 mg/dL, the GLC (1 mg/kg, 9 h, dose level Low) was 161.4 mg/dL and the IP (1 mg/kg, 9 h, dose level Low) was 10.2 mg/dL. It also gave a K (1 mg/kg, 9 h, dose level Low) of 3.8 meq/L, an LDH (1 mg/kg, 9 h, dose level Low) of 53.6 IU/L and a Na (1 mg/kg, 9 h, dose level Low) of 142.8 meq/L. For the same compound, the PL (1 mg/kg, 9 h, dose level Low) was 122.8 mg/dL, the RALB (1 mg/kg, 9 h, dose level Low) was 2.5 g/dL and the TBIL (1 mg/kg, 9 h, dose level Low) was 0.07 mg/dL. It also gave a TC (1 mg/kg, 9 h, dose level Low) of 75.8 mg/dL, a TG (1 mg/kg, 9 h, dose level Low) of 31.4 mg/dL and a TP (1 mg/kg, 9 h, dose level Low) of 5.6 g/dL. It also gave a gamma-GTP (1 mg/kg, 9 h, dose level Low) of 1.6 IU/L, a TERMINAL_BW (1 mg/kg, 24 h, dose level Low) of 224.5 g and an APTT (1 mg/kg, 24 h, dose level Low) of 14.8 s. It also gave a Bas (1 mg/kg, 24 h, dose level Low) of 0%, an Eos (1 mg/kg, 24 h, dose level Low) of 1% and a Fbg (1 mg/kg, 24 h, dose level Low) of 286.6 mg/dL. It also gave a Hb (1 mg/kg, 24 h, dose level Low) of 13.3 g/dL, a Ht (1 mg/kg, 24 h, dose level Low) of 39.7% and a Lym (1 mg/kg, 24 h, dose level Low) of 79.8%. It also gave an MCH (1 mg/kg, 24 h, dose level Low) of 21.2 pg, an MCHC (1 mg/kg, 24 h, dose level Low) of 33.6% and an MCV (1 mg/kg, 24 h, dose level Low) of 63.1 fL. For the same compound, the Mono (1 mg/kg, 24 h, dose level Low) was 2.2%, the Neu (1 mg/kg, 24 h, dose level Low) was 16.6% and the PT (1 mg/kg, 24 h, dose level Low) was 12 s. For the same compound, the Plat (1 mg/kg, 24 h, dose level Low) was 135.9 x10_4/uL, the RBC (1 mg/kg, 24 h, dose level Low) was 628.6 x10_4/ul and the Ret (1 mg/kg, 24 h, dose level Low) was 7.1%. For the same compound, the WBC (1 mg/kg, 24 h, dose level Low) was 100.8 x10_2/uL, the KIDNEY_L (1 mg/kg, 24 h, dose level Low) was 1 g and the KIDNEY_R (1 mg/kg, 24 h, dose level Low) was 1 g. The KIDNEY_TOTAL (1 mg/kg, 24 h, dose level Low) was 1.9 g, the LIVER (1 mg/kg, 24 h, dose level Low) was 10.5 g and the A/G (1 mg/kg, 24 h, dose level Low) was 0.8. It also gave an ALP (1 mg/kg, 24 h, dose level Low) of 1710.6 IU/L, an ALT (1 mg/kg, 24 h, dose level Low) of 39.8 IU/L and an AST (1 mg/kg, 24 h, dose level Low) of 67.8 IU/L. The BUN (1 mg/kg, 24 h, dose level Low) was 17.2 mg/dL, the CRE (1 mg/kg, 24 h, dose level Low) was 0.2 mg/dL and the Ca (1 mg/kg, 24 h, dose level Low) was 11 mg/dL. It also gave a Cl (1 mg/kg, 24 h, dose level Low) of 105.6 meq/L, a DBIL (1 mg/kg, 24 h, dose level Low) of 0.02 mg/dL and a GLC (1 mg/kg, 24 h, dose level Low) of 161.8 mg/dL. The IP (1 mg/kg, 24 h, dose level Low) was 8.2 mg/dL, the K (1 mg/kg, 24 h, dose level Low) was 3.9 meq/L and the LDH (1 mg/kg, 24 h, dose level Low) was 50.4 IU/L. It also gave a Na (1 mg/kg, 24 h, dose level Low) of 144 meq/L, a PL (1 mg/kg, 24 h, dose level Low) of 143.8 mg/dL and an RALB (1 mg/kg, 24 h, dose level Low) of 2.7 g/dL. For the same compound, the TBIL (1 mg/kg, 24 h, dose level Low) was 0.056 mg/dL, the TC (1 mg/kg, 24 h, dose level Low) was 79.4 mg/dL and the TG (1 mg/kg, 24 h, dose level Low) was 92.2 mg/dL. For the same compound, the TP (1 mg/kg, 24 h, dose level Low) was 5.8 g/dL, the gamma-GTP (1 mg/kg, 24 h, dose level Low) was 1.8 IU/L and the TERMINAL_BW [1] was 220.8 g. It also gave an APTT [1] of 17.1 s, a Bas [1] of 0% and an Eos [1] of 1%. The Fbg [1] was 283 mg/dL, the Hb [1] was 13.7 g/dL and the Ht [1] was 38.4%. The Lym [1] was 69%, the MCH [1] was 20.9 pg and the MCHC [1] was 35.8%. It also gave an MCV [1] of 58.4 fL, a Mono [1] of 4% and a Neu [1] of 25%. For the same compound, the PT [1] was 12.6 s, the Plat [1] was 117.6 x10_4/uL and the RBC [1] was 657 x10_4/ul. It also gave a Ret [1] of 6.8%, a WBC [1] of 144 x10_2/uL and a KIDNEY_L [1] of 1 g. The KIDNEY_R [1] was 0.9 g, the KIDNEY_TOTAL [1] was 1.9 g and the LIVER [1] was 10.3 g. It also gave an A/G [1] of 0.8, an ALP [1] of 1456 IU/L and an ALT [1] of 41 IU/L. The AST [1] was 72 IU/L, the BUN [1] was 31 mg/dL and the CRE [1] was 0.2 mg/dL. The Ca [1] was 11 mg/dL, the Cl [1] was 106 meq/L and the DBIL [1] was 0.01 mg/dL. For the same compound, the GLC [1] was 186 mg/dL, the IP [1] was 10.5 mg/dL and the K [1] was 4.4 meq/L. For the same compound, the LDH [1] was 71 IU/L, the Na [1] was 141 meq/L and the PL [1] was 134 mg/dL. It also gave an RALB [1] of 2.5 g/dL, a TBIL [1] of 0.07 mg/dL and a TC [1] of 78 mg/dL. For the same compound, the TG [1] was 41 mg/dL, the TP [1] was 5.5 g/dL and the gamma-GTP [1] was 2 IU/L. The TERMINAL_BW [2] was 211.7 g, the APTT [2] was 15.8 s and the Bas [2] was 0.2%. For the same compound, the Eos [2] was 0%, the Fbg [2] was 236 mg/dL and the Hb [2] was 14.3 g/dL. For the same compound, the Ht [2] was 41.1%, the Lym [2] was 54.8% and the MCH [2] was 21.2 pg. It also gave an MCHC [2] of 35%, an MCV [2] of 60.7 fL and a Mono [2] of 3.2%. It also gave a Neu [2] of 40.8%, a PT [2] of 12.8 s and a Plat [2] of 138.8 x10_4/uL. The RBC [2] was 676.8 x10_4/ul, the Ret [2] was 8.1% and the WBC [2] was 102.6 x10_2/uL. For the same compound, the KIDNEY_L [2] was 1 g, the KIDNEY_R [2] was 1 g and the KIDNEY_TOTAL [2] was 2.1 g. The LIVER [2] was 9.1 g, the A/G [2] was 0.9 and the ALP [2] was 1566.8 IU/L. The ALT [2] was 197 IU/L, the AST [2] was 407 IU/L and the BUN [2] was 43.8 mg/dL. The CRE [2] was 0.4 mg/dL, the Ca [2] was 11 mg/dL and the Cl [2] was 107 meq/L. For the same compound, the DBIL [2] was 0.0175 mg/dL and the GLC [2] was 196.8 mg/dL.
